Test results from patent publication US20230101747A1 (Schrödinger, Inc., priority 2019, published 2023).
Read-outs that look alike come from different tables or passages of the source.

Columns and labels:
[1] = molecular target: T1, Full length human CDC7 protein co-expressed with DBF4 (Homo sapiens, UniProt O00311); test: CDC7 kinase biochemical assay (ADP-Glo, PDKtide substrate); conditions: 0.1 nM CDC7/DBF4, 1 uM ATP, 10 uM PDKtide, 4 h; read-out: CDC7 ADP-Glo PDKtide IC50
T1 construct: Full length human CDC7 protein co-expressed with DBF4; purchased SignalChem (China)
T1 sequence (O00311 whole entry): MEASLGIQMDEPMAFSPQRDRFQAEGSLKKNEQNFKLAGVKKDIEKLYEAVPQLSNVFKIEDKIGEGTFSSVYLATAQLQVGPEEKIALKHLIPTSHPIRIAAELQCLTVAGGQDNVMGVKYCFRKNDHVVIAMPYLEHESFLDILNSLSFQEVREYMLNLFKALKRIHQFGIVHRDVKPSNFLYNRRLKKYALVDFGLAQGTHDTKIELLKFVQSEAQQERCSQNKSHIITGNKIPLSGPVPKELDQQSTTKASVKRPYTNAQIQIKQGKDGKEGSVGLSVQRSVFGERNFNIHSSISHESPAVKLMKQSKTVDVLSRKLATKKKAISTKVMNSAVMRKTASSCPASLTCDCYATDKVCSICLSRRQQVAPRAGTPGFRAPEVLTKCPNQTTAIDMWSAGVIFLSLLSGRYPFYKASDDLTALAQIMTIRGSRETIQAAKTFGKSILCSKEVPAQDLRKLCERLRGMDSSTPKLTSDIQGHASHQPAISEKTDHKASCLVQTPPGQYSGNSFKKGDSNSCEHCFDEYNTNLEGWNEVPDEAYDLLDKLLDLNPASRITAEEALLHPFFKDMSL
T1 sequence (Q9UBU7 whole entry partner): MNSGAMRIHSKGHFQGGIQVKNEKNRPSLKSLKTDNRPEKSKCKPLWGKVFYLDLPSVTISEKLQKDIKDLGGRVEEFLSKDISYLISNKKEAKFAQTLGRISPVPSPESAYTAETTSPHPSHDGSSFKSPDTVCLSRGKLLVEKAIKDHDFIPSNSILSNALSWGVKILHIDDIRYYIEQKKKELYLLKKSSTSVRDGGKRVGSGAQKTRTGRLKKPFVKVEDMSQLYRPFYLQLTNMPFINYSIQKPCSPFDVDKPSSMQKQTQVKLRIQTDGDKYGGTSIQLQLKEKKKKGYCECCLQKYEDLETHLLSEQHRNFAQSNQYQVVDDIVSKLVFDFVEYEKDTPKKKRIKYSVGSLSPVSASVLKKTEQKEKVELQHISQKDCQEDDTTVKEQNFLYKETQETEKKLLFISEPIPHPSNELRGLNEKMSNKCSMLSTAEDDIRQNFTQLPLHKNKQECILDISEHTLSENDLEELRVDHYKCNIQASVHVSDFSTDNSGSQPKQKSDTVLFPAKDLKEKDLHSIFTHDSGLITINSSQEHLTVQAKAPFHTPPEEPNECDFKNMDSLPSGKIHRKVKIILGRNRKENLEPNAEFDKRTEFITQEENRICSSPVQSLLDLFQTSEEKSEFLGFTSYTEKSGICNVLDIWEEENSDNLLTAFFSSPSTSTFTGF
In short: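 Full-length human CDC7 co-expressed with DBF4 (0.1 nM) incubated 4 h with 1 uM ATP and 10 uM PDKtide in 40 mM Tris pH 7.5, 20 mM MgCl2, 0.1 mg/ml BSA, 50 uM DTT. ADP formed read by ADP-Glo luminescence. % inhibition scaled between DMSO (high) and reference CDC7 inhibitor (low) controls.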

[2] = tested on: phosphorylation of MCM2 S53 (CDC7 substrate) in colo205 cells; test: Phosphorylated MCM2 MSD electrochemiluminescence assay; format: cell-based; conditions: Homo sapiens, read-out: pMCM2-S53 MSD Colo205 IC50
Description: Phosphorylated MCM2 MSD Electrochemiluminescence Assay
The effect of CDC7 inhibitors on cellular phosphorylation of the CDC7 substrate MCM2 was determined using the following protocol:
A total of 40,000 colo205 cells in 100 uL culture medium (1640 medium+10% Fetal bovine serum+1% Penicillin-Streptomycin) were plated in 96-well cell culture plates and allowed to attach for 6 hours. 3-fold serial dilutions of test compounds were prepared in completed PBS at 25× final concentration and 4 uL of each were added to the cells and incubated for 20 hours at 37° C., 5% CO2. Each concentration was tested in duplicate. After the 20 h incubation, cells were washed with 150 uL PBS and lysed with 40 uL MSD lysis buffer (obtained from Meso Scale Diagnostics) supplied with 1× complete ULTRA cocktail inhibitor (obtained from Roche). To detect phosphorylation of MCM2 S53, 30 μL of capture antibody solution (obtained from Abnova, catalog number H00004171-M01, 1:500) was added to each well of MULTI-ARRAY 96-well High Bind Plate, and incubated overnight. The antibody solution was removed, wells blocked with BSA solution and plates washed, followed by addition of 30 ul of cell lysate per well. After 2 h incubation, plates were washed. 30 μL of 1× detection antibody solution (obtained from Abcam, catalog number ab109133, 1:1000) was then added to each well and incubate for 1 hour. Plates were washed and 30 μL of 1× secondary antibody solution (obtained from MSD, catalog number R32AB-1, 1:5000) was added to each well and incubate for 1 hour. Plates were washed and 150 μL of 1× Read Buffer T was added to each well of the MSD plate. The electrochemiluminescence signal was measured on a MESO SECTOR S600 plate reader. The percentage of remaining phosphorylated MCM2 signal was calculated following the equation below.
HC (high control): Cells treated with DMSO Cpds: Cells treated with test compounds LC (low control): Cells treated with positive control CDC7 inhibitor

[3] = COLO 205, colo205 cells, 20 h incubation

SMILES | IC50 [1] | IC50 [2, 3] | IC50 ([2]; COLO 205, 20 h)
COC[C@@H]1CN2CC(F)(F)Cc3c(-c4cn[nH]c4)sc(c32)C(=O)N1 [Compound 115, (S)-4,4-difluoro-7-(methoxymethyl)-2-(1H-pyrazol-4-yl)-4,5,7,8-tetrahydro-3H-1-thia-5a,8-diazabenzo[cd]azulen-9(6H)-one] | < 1 nM | 218 nM | 
O=C1NC2(CCC2)CN2CCOc3c(-c4cn[nH]c4)sc1c32 [Compound 51, 2-(1H-pyrazol-4-yl)-4,5-dihydro-6H-3-oxa-1-thia-5a,8-diazaspiro[benzo[cd]azulene-7,1′-cyclobutan]-2,2a1(9a)-dien-9(8H)-one] | < 1 nM |  | 18 nM
O=C1N[C@H](C2CCC2)CN2CCOc3c(-c4cn[nH]c4)sc1c32 [Compound 19, (R)-7-cyclobutyl-2-(1H-pyrazol-4-yl)-4,5,7,8-tetrahydro-3-oxa-1-thia-5a,8-diazabenzo[cd]azulen-9(6H)-one] | < 1 nM | 57 nM | 
COC1(C[C@@H]2CNC(=O)c3sc(-c4cn[nH]c4)c4c3N2CCC4)CC1 [Compound 91, (9R)-9-[(1-methoxycyclopropyl)methyl]-3-(1H-pyrazol-4-yl)-2-thia-8,11-diazatricyclo [6.4.1.0^4,13]trideca-1(13),3-dien-12-one] | < 1 nM | 660 nM | 
COC[C@H]1CN2C[C@H](F)Cc3c(-c4cn[nH]c4)sc(c32)C(=O)N1 (single isomer, unassigned) [Compound 126] | < 1 nM | 902 nM | 
O=C1N[C@@H]([C@@H]2CC(F)(F)CN2)CN2CC(F)(F)Cc3c(-c4cn[nH]c4)sc1c32 [Compound 135, (10R)-10-[(2S)-4,4-difluoropyrrolidin-2-yl]-6,6-difluoro-3-(1H-pyrazol-4-yl)-2-thia-8,11-diazatricyclo[6.4.1.04,13]trideca-1(13),3-dien-12-one] | < 1 nM | 27 nM | 
C[C@H]1CN2CCOc3c(-c4cn[nH]c4)sc(c32)C(=O)N1 [Compound 16, (S)-7-methyl-2-(1H-pyrazol-4-yl)-4,5,7,8-tetrahydro-3-oxa-1-thia-5a,8-diazabenzo[cd]azulen-9(6H)-one] | < 1 nM | 16 nM | 
O=C1N[C@H](C2CCC2)CN2CC(F)(F)Oc3c(-c4cn[nH]c4)sc1c32 [Compound 100, (R)-7-cyclobutyl-4,4-difluoro-2-(1H-pyrazol-4-yl)-4,5,7,8-tetrahydro-3-oxa-1-thia-5a,8-diazabenzo[cd]azulen-9(6H)-one] | < 1 nM | 23 nM | 
O=C1N[C@@H](COC(F)F)CN2CC(F)(F)Cc3c(-c4cn[nH]c4)sc1c32 [Compound 142, (R)-7-((difluoromethoxy)methyl)-4,4-difluoro-2-(1H-pyrazol-4-yl)-4,5,7,8-tetrahydro-3H-1-thia-5a,8-diazabenzo[cd]azulen-9(6H)-one] | < 1 nM | 5 nM | 
C[C@H]1CN2CCCc3c(-c4cn[nH]c4)sc(c32)C(=O)N1 [Compound 30, (S)-7-methyl-2-(1H-pyrazol-4-yl)-4,5,7,8-tetrahydro-3H-1-thia-5a,8-diazabenzo[cd]azulen-9(6H)-one] | < 1 nM | 41 nM | 
COC[C@@H]1CN2CCOc3c(-c4cn[nH]c4)sc(c32)C(=O)N1 [Compound 54, (S)-7-(methoxymethyl)-2-(1H-pyrazol-4-yl)-4,5,7,8-tetrahydro-3-oxa-1-thia-5a,8-diazabenzo[cd]azulen-9(6H)-one] | < 1 nM | 110 nM | 
O=C1NCCN2c3c1sc(-c1cn[nH]c1)c3OC[C@@H]2CO [Compound 49, (S)-5-(hydroxymethyl)-2-(1H-pyrazol-4-yl)-4,5,7,8-tetrahydro-3-oxa-1-thia-5a,8-diazabenzo[cd]azulen-9(6H)-one] | < 1 nM | 509 nM | 
COC[C@@H]1CNC(=O)c2sc(-c3cn[nH]c3)c3c2N1CCO3 [Compound 55, (S)-6-(methoxymethyl)-2-(1H-pyrazol-4-yl)-4,5,7,8-tetrahydro-3-oxa-1-thia-5a,8-diazabenzo[cd]azulen-9(6H)-one] | < 1 nM | 21 nM | 
O=C1NC[C@H](CO)N2CCOc3c(-c4cn[nH]c4)sc1c32 [Compound 33, (R)-6-(hydroxymethyl)-2-(1H-pyrazol-4-yl)-4,5,7,8-tetrahydro-3-oxa-1-thia-5a,8-diazabenzo[cd]azulen-9(6H)-one] | < 1 nM | 80 nM | 
O=C1NC[C@@H](COCc2ccccc2)N2CCOc3c(-c4cn[nH]c4)sc1c32 [Compound 38, (S)-6-((benzyloxy)methyl)-2-(1H-pyrazol-4-yl)-4,5,7,8-tetrahydro-3-oxa-1-thia-5a,8-diazabenzo[cd]azulen-9(6H)-one] | 1 to 10 nM | 1810 nM | 
O=C1N[C@@H](Cn2cccn2)CN2CC(F)(F)Cc3c(-c4cn[nH]c4)sc1c32 [Compound 102, (R)-7-((1H-pyrazol-1-yl)methyl)-4,4-difluoro-2-(1H-pyrazol-4-yl)-4,5,7,8-tetrahydro-3H-1-thia-5a,8-diazabenzo[cd]azulen-9(6H)-one] | < 1 nM | 66 nM | 
O=C1N[C@@H](C23CCC(CC2)O3)CN2CC(F)(F)Cc3c(-c4cn[nH]c4)sc1c32 (single isomer, unassigned) [Compound 121] | < 1 nM | 12 nM | 
O=C1N[C@@H]([C@H]2CCCO2)CN2CC(F)(F)Cc3c(-c4cn[nH]c4)sc1c32 (single isomer, unassigned) [Compound 118] | < 1 nM | 5 nM | 
O=C1NC[C@@H](C2CCOCC2)N2CCOc3c(-c4cn[nH]c4)sc1c32 (single isomer, unassigned) [Compound 27] | < 1 nM | 256 nM | 
Cc1cnn(C[C@H]2CN3CCOc4c(-c5cn[nH]c5)sc(c43)C(=O)N2)c1 [Compound 41, (R)-7-((4-methyl-1H-pyrazol-1-yl)methyl)-2-(1H-pyrazol-4-yl)-4,5,7,8-tetrahydro-3-oxa-1-thia-5a,8-diazabenzo[cd]azulen-9(6H)-one] | < 1 nM | 87 nM | 
O=C1NC[C@H](CO)N2CCOc3c(-c4ccncc4)sc1c32 [Compound 50, (R)-6-(hydroxymethyl)-2-(pyridin-4-yl)-4,5,7,8-tetrahydro-3-oxa-1-thia-5a,8-diazabenzo[cd]azulen-9(6H)-one] | < 1 nM | 268 nM | 
O=C1N[C@@H](CO)CN2CCCc3c(-c4cn[nH]c4)sc1c32 [Compound 32, (R)-7-(hydroxymethyl)-2-(1H-pyrazol-4-yl)-4,5,7,8-tetrahydro-3H-1-thia-5a,8-diazabenzo[cd]azulen-9(6H)-one] | < 1 nM | 812 nM | 
O=C1N[C@H](CO)CN2CCOc3c(-c4cn[nH]c4)sc1c32 [Compound 39, (S)-7-(hydroxymethyl)-2-(1H-pyrazol-4-yl)-4,5,7,8-tetrahydro-3-oxa-1-thia-5a,8-diazabenzo[cd]azulen-9(6H)-one] | < 1 nM | 265 nM | 
COC[C@H]1CN2C[C@@H](F)Cc3c(-c4cn[nH]c4)sc(c32)C(=O)N1 (single isomer, unassigned) [Compound 125] | < 1 nM | 12 nM | 
C[C@@H]1CN2CC(F)(F)Oc3c(-c4cn[nH]c4)sc(c32)C(=O)N1 [Compound 93, (10R)-6,6-difluoro-10-methyl-3-(1H-pyrazol-4-yl)-5-oxa-2-thia-8,11-diazatricyclo [6.4.1.0^443] trideca-1(13), 3-dien-12-one] | < 1 nM | 28 nM | 
